{
  "source": "patent US20080050755A1",
  "about": "“Method for screening for chemotherapeutic treatments for cancer” (priority 2000, published 2008)",
  "tested_on": "Tcf/Lef reporter activity (endogenous β-catenin) in 293T cells",
  "assay": "Tcf/Lef reporter assay (pTOPFLASH/pFOPFLASH) in adriamycin-treated 293T cells",
  "type": "cell-based",
  "details": "293T cells treated with 1 µg/ml adriamycin 8 hours after transfection for 16 hours; FIG. 6E",
  "excerpt": "FIGS. 6A, 6B, 6C, and 6E illustrate that Siah-1 mediates p53-induced degradation of β-catenin. […] 293T cells were transiently co-transfected with an internal control (pEGFP) and the indicated plasmids. The amount of DNA in each transfection was kept constant by the addition of an appropriate amount of empty expression vector. Whole cell lysates were subjected to Western analysis. Blots were probed with mouse monoclonal antibodies to the Myc epitope tag (upper panel) and GFP (lower panel). FIG. 6C illustrate the pulse-chase analysis of ectopically expressed Myc-tagged β-catenin. […] Immunoprecipitated Myc-β-catenin was subjected to SDS-PAGE and dried gels were analyzed with a PhosphorImager. […]\nCell culture, transfection, reporter assay, co-immunoprecipitation and immmunoblotting. […] Luciferase and β-galactosidase activity was measured 24 hours after transfecton. Tcf/Lef reporter activity was determined as described. […] The whole cell extract (WCE) was immunoprecipitated using a mouse monoclonal antibody specific for the amino-terminus of pAPC (Ab-5, Oncogene Research) or a control mouse IgG, and associated Myc-Siah-1 protein was detected by immunoblotting using an anti-Myc monoclonal antibody (9E10). The pAPC in WCE (20 µg) and immunoprecipitates was detected using an anti-APC mouse monoclonal antibody (Ab-1, Oncogene Research). […]",
  "data": [
    {"compound": "COc1cccc2c1C(=O)c1c(O)c3c(c(O)c1C2=O)C[C@@](O)(C(=O)CO)C[C@@H]3O[C@H]1C[C@H](N)[C@H](O)[C@H](C)O1", "note": "[adriamycin]", "values": [
      {"measurement": "Tcf/Lef reporter activity (TOP/FOP)", "result": "decreased Tcf/Lef reporter activity"}
    ]}
  ]
}
